Measurements reported in patent publication US5428139A, “Bicyclopolyazamacrocyclophosphonic acid complexes for use as radiopharmaceuticals” (The Dow Chemical Company, priority 1991, dated 1995).

Experiments:
[1] = Biodistribution: percent of injected dose in tissues; format: in vivo, Sprague Dawley rats; conditions: for % injected dose in bone: 100 μl complex i.v. via tail vein, bone estimated as femur x 25; for % injected dose in blood: blood assumed 7% of body weight; for % injected dose in muscle: muscle assumed 43% of body weight
Protocol: Sprague Dawley rats were allowed to acclimate for five days then injected with 100 μl of the complex solution via a tail vein. The rats weighed between 150 and 200 g at the time of injection. After 30 min. the rats were killed by cervical dislocation and dissected. The amount of radioactivity in each tissue was determined by counting in a NaI scintillation counter coupled to a multichannel analyzer. The counts were compared to the counts in 100 μl standards in order to determine the percentage of the dose in each tissue or organ.
The percent dose in blood was estimated assuming blood to be 7% of the body weight. The percent dose in bone was estimated by multiplying the percent dose in the femur by 25. The percent dose in muscle was estimated assuming muscle to be 43% of the body weight.

[2] = Percent metal as a complex (Sephadex column, ion exchange method); format: physicochemical; conditions: 1:1 ligand/metal, eluted with 4:1 saline (0.85% NaCl/NH4 OH)
Protocol: A stock ^153 SmCl3 solution was prepared by adding 2 μL of 3×10^-4 M ^153 SmCl3 in 0.1N HCl to 2 mL of a 3×10^-4 M SmCl3 carrier solution. Appropriate ligand solutions were then prepared in deionized water. The 1:1 ligand/metal complexes were then prepared by combining the ligands (dissolved in 100-500 μL of deionized water) with 2 mL of the stock ^153 SmCl3 solution, followed by through mixing to give an acidic solution (pH=2). The pH of the solution was then raised to 7.0 using 0.1N NaOH. The percent metal as a complex was then determined by passing a sample of the complex solution through a Sephadex™ G-50 column, eluting with 4:1 saline ([…]) and collecting 2×3 mL fractions. The amount of radioactivity in the combined elutions was then compared with that left on the resin (non-complexed metal is retained on the resin). […]
A solution of the ligand of Example 1 was prepared by dissolving 3.8 mg of ligand/0.517 mL of deionized water (pH=2). […] After thorough mixing, the percent metal as a complex was determined by passing a sample of the complex solution through a Sephadex™ column, eluting with 4:1 saline (0.85% NaCl/NH4 OH), and collecting 2×3 mL fractions. The amount of radioactivity in the combined elutions was then compared with that left on the resin. […] By this method complexation was determined to be 98%. […] The pH stability was then determined using the General Procedure above.

[3] = patients with metastatic bone lesions; cited from earlier work
[4] = Sprague Dawley rats, 30 min, average
[5] = Sprague Dawley rats, tail vein, 30 min, average
[6] = rats, 30 min, % dose/G printed for bone to blood ratio

Compound	bone to blood ratio ([1]; % dose/G, rats, 30 min)	% injected dose in bone [1, 4] [%]	% injected dose in kidney [1, 5] [%]	% injected dose in liver [1, 5] [%]	% injected dose in blood [1, 5] [%]	% injected dose in muscle [1, 5] [%]	bone to liver ratio [1, 6]	bone to muscle ratio [1, 6]	bone localization ([1]; 5:1 ligand to metal ratio)	% injected dose in spleen [1, 5] [%]	percent metal as a complex (complexation) [2] [%]	blood levels [3]	lesion to normal bone ratios [3]
O=P(O)(O)CN1CCN(CP(=O)(O)O)Cc2cccc(n2)CN(CP(=O)(O)O)CC1.[90Y] [^90 Y-PCTMP, complex of ^90 Y-3,6,9,15-tetraazabicyclo[9.3.1]pentadeca-1(15),11,13-triene-3,6,9-trimethylenephosphonic acid]	140	29	0.36	0.21	0.18	0.42	76	400					
O=P(O)(O)CN1CCN(CP(=O)(O)O)Cc2cccc(n2)CN(CP(=O)(O)O)CC1.[153Sm] [^153 Sm-PCTMP, complex of ^153 Sm-3,6,9,15-tetraazabicyclo[9.3.1]pentadeca-1(15),11,13-triene-3,6,9-trimethylenephosphonic acid]		60	0.38	2.80	0.29	0.40			about 60%	0.16	98		
O=P(O)(O)CN1CCN(CP(=O)(O)O)Cc2cccc(n2)CN(CP(=O)(O)O)CC1.[166Ho] [^166 Ho-PCTMP, complex of ^166 Ho-3,6,9,15-tetraazabicyclo[9.3.1]pentadeca-1(15),11,13-triene-3,6,9-trimethylenephosphonic acid]		43	0.33	3.55	0.12	0.34							
Strontium-89												high	low
